Data published in US9441261B2, “Use of bacterial beta-lactamase for in vitro diagnostics and in vivo imaging, diagnostics and therapeutics” (priority 2008, dated 2016).
“Also recorded” adds a separate entry of the source. Where two headings read alike, the source gives them in different places.

Legend:
Bla = Bla (Escherichia coli, UniProt P62593); assay type: biochemical; conditions: CC1 versus analog without inserted double bond
Bacillus Calmette-Guerin = assay type: cell-based, Mycobacterium bovis; conditions: 2 ng/μl rifampicin or 0.2 ng/μl INH, sputum, CDG-OMe, 24 hour
Mtb BlaC [1] = target: T1, Mtb BlaC (Mycobacterium tuberculosis, UniProt P9WKD3); assay type: biochemical; conditions: for enzyme preference Mtb BlaC versus TEM-1 Bla: in words
T1 sequence (P9WKD3 35-307): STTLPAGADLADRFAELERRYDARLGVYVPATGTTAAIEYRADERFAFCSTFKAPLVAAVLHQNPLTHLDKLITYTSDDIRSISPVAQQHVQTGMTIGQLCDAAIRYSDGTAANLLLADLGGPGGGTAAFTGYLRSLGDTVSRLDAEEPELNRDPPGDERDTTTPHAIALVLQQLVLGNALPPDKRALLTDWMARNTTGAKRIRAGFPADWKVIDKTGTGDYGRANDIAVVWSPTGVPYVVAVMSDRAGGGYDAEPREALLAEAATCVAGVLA

Mtb BlaC [2] = target: T1, Mtb BlaC; assay: Hydrolysis kinetics of coumarin-based lactam probes by Mtb BlaC (fluorescence of released 7-hydroxycoumarin); assay type: biochemical
TEM-1 Bla [3] = target: T2, TEM-1 Bla (Escherichia coli, UniProt P62593); assay type: biochemical, E. coli; conditions: for hydrolysis by TEM-1 bla: in words
T2 sequence (P62593 24-286 limits assumed): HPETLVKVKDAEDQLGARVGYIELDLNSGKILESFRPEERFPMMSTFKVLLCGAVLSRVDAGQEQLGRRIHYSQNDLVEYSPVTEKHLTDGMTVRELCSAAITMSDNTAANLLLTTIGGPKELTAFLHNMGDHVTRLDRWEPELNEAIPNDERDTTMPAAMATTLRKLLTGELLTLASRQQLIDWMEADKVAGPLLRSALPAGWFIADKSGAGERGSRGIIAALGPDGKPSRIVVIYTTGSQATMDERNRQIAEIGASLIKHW

[4] = system: CCN1CCN(C(=O)N[C@@H](C(=O)N[C@@H]2C(=O)N3C(C(=O)O)=C(CSc4nnnn4C)CS[C@H]23)c2ccc(O)cc2)C(=O)C1=O; assay: purified protein, by the assay type
TEM-1 Bla [5] = target: T2, TEM-1 Bla; conditions: cefoperazone versus CNIR5
Bla in live E. coli = assay: Detection of Bla activity in living E. coli; assay type: cell-based; conditions: E. coli with ampicillin resistant plasmid, LB media

Bla, sequence (P62593 24-286 limits assumed): as above

Compound: O=C(Cc1ccccc1)N[C@@H]1C(=O)N2C(C(=O)O)=C(/C=C\COc3ccc4ccc(=O)oc4c3)CS[C@H]12 [CC1]
- increase in the catalytic efficiency by the inserted double bond (Bla): ~5 fold

Compound: NNC(=O)c1ccncc1 [isoniazide]
- fluorescence of BCG with drug over time (Bacillus Calmette-Guerin): effectively no increase in fluorescence

Compound: CO[C@@]1(NC(=O)Cc2cccs2)C(=O)N2C(C(=O)O)=C(COC(N)=O)CS[C@@H]21 [cefoxitin]
- enzyme preference Mtb BlaC versus TEM-1 Bla (Mtb BlaC [1]): better kinetics with the Mtb BlaC than TEM-1

Compound: O=C(Cc1ccccc1)N[C@@H]1C(=O)N2C(C(=O)O)=C(COc3ccc4ccc(=O)oc4c3)CS[C@H]12 [CDC-1]
- enzyme preference Mtb BlaC versus TEM-1 Bla (Mtb BlaC [2]; in words): TEM-1 Bla-preferred

Compound: CO[C@@]1(NC(C)=O)C(=O)N2C(C(=O)O)=C(COc3ccc4ccc(=O)oc4c3)CS[C@@H]21 [4-64]
- hydrolysis by TEM-1 bla (TEM-1 Bla [3]): so slow that cannot be determined

Compound: CO/N=C(\C(=O)N[C@@H]1C(=O)N2C(C(=O)O)=C(COC(C)=O)CS[C@H]12)c1csc(N)n1 [cefotaxime]
- enzyme preference Mtb BlaC versus TEM-1 Bla (Mtb BlaC [1]): better kinetics with the Mtb BlaC than TEM-1

Compound: Mtb BlaC (Mycobacterium tuberculosis H37Rv)
- Km [4]: 76 µM
- kcat [4]: 2.01 s⁻¹
- kcat/Km [4]: 26000 M⁻¹ s⁻¹

Compound: CCO[C@@]1(NC(=O)Cc2ccccc2)C(=O)N2C(C(=O)O)=C(COc3ccc4ccc(=O)oc4c3)CS[C@@H]21 [CDC-OEt]
- hydrolysis by TEM-1 bla (TEM-1 Bla [3]): so slow that cannot be determined

Compound: TEM-1 Bla (Escherichia coli)
- Km ([4]; other: TEM-1 Bla): 262 µM
- kcat ([4]; other: TEM-1 Bla): 0.26 s⁻¹
- kcat/Km ([4]; other: TEM-1 Bla): 1000 M⁻¹ s⁻¹

Compound: CCN1CCN(C(=O)N[C@@H](C(=O)N[C@@H]2C(=O)N3C(C(=O)O)=C(CSc4nnnn4C)CS[C@H]23)c2ccc(O)cc2)C(=O)C1=O [cefoperazone]
- kcat/KM for TEM-1 Bla smaller than that of CNIR5 (TEM-1 Bla [5]): 100 fold
- faster kinetics with the Mtb enzyme than the TEM-1 enzyme (Mtb BlaC [1]): 10-100 fold
- enzyme preference Mtb BlaC versus TEM-1 Bla (Mtb BlaC [1]): preferred substrate for Mtb BlaC as compared to TEM-1 Bla; also recorded: better kinetics with the Mtb BlaC than TEM-1

Compound: CCCC(=O)Oc1cc2oc(=O)c(C(=O)NCC(=O)N[C@@H]3C(=O)N4C(C(=O)OCOC(C)=O)=C(CSc5ccc6c(c5)C(=O)OC65c6ccc(OC(C)=O)cc6Oc6cc(OC(C)=O)ccc65)CS[C@H]34)cc2cc1Cl [CCF2/AM]
- detection of Bla in live E. coli (Bla in live E. coli): not detected

Compound: O=C(Cc1ccccc1)N[C@@H]1C(=O)N2C(C(=O)O)=C(COc3ccc4ccc(=O)oc4c3)C[S+]([O-])[C@H]12 (some centres unmarked) [CDC-2]
- kcat (Mtb BlaC [2]; blaC): 0.51 s⁻¹
- kcat (TEM-1 Bla [3]; TEM-1 bla): 7 s⁻¹

Compound: CO[C@@]1(NC(=O)Cc2ccccc2)C(=O)N2C(C(=O)O)=C(COc3ccc4ccc(=O)oc4c3)CS[C@@H]21 [CDC-OMe]
- kcat/Km for blaC larger than for TEM-1 bla (Mtb BlaC [2]): 1,400 fold
